Experimental data taken from patent US9951028B2, “Agricultural chemicals” (REDAG CROP PROTECTION LTD, priority 2013, dated 2018).

Experiments:
[1] = test system: garden cress, Lepidium sativum; assay: Herbicidal efficacy screen, potter tower spray, necrosis assessed; type: in vivo
Description: (§1) Compounds 22, 23 and 24 were screened for herbicidal efficacy against target plants: garden cress, Lepidium sativum, common chickweed, Stellaria media, and white mustard […] alba Plants were obtained as seeds and were grown to the 2-4 true leaf stage. Plants were grown under laboratory conditions, individually in seed trays. Each plant (in an approximately 3 cm diameter plug) was then detached from the tray for spraying. The compounds were screened at a range of five concentrations, diluted in acetone and TweenTM. A carrier only control was also conducted. Treatments were applied directly onto the plants, using a potter tower, at a specified application rate. One plant of each species was sprayed using a potter tower. The 3 different types of plants were placed on a 10 cm diameter platform directly beneath the potter sprayer and sprayed simultaneously. The growth of the plants and any Phytotoxicity effects were then assessed at intervals over 21 days, according to EPPO guideline PP1/135. Five replicas were performed for each treatment, for each species. In the tables below C represents a percentage increase in necrosis relative to the control of 0.1-50; B represents a percentage inhibition of 50-80; and A represents a percentage inhibition of 80-100.

[2] = test system: common chickweed, Stellaria media; assay: as above; type: in vivo
Description: as §1

[3] = 12.5 g/ha, day 3 post application
[4] = 12.5 g/ha, day 4 post application
[5] = 12.5 g/ha, day 5 post application
[6] = 12.5 g/ha, day 7 post application
[7] = 12.5 g/ha, day 10 post application
[8] = 25 g/ha, day 1 post application
[9] = 25 g/ha, day 2 post application
[10] = 25 g/ha, day 3 post application
[11] = 25 g/ha, day 4 post application
[12] = 25 g/ha, day 5 post application
[13] = 25 g/ha, day 7 post application
[14] = 25 g/ha, day 10 post application
[15] = 50 g/ha, day 1 post application
[16] = 50 g/ha, day 2 post application
[17] = 50 g/ha, day 3 post application
[18] = 50 g/ha, day 4 post application
[19] = 50 g/ha, day 5 post application
[20] = 50 g/ha, day 7 post application
[21] = 50 g/ha, day 10 post application
[22] = 100 g/ha, day 1 post application
[23] = 100 g/ha, day 2 post application
[24] = 100 g/ha, day 3 post application
[25] = 100 g/ha, day 4 post application
[26] = 100 g/ha, day 5 post application
[27] = 100 g/ha, day 7 post application
[28] = 100 g/ha, day 10 post application
[29] = 200 g/ha, day 1 post application
[30] = 200 g/ha, day 2 post application
[31] = 200 g/ha, day 3 post application
[32] = 200 g/ha, day 4 post application
[33] = 200 g/ha, day 5 post application
[34] = 200 g/ha, day 7 post application
[35] = 200 g/ha, day 10 post application

CC(C)N(C)S(=O)(=O)/N=C/c1cc(-n2c(=O)cc(C(F)(F)F)n(C)c2=O)c(F)cc1Cl [Compound 22, 1-[4-Chloro-2-fluoro-5-[(E)-(isopropyl(methyl)sulfamoyl)iminomethyl]phenyl]-3-methyl-2,6-dioxo-4-(trifluoromethyl)pyrimidine]
Average of necrosis [1, 3]: C (C represents a percentage increase in necrosis relative to the control of 0.1-50) | Average of necrosis [1, 4]: C (C represents a percentage increase in necrosis relative to the control of 0.1-50) | Average of necrosis [1, 5]: C (C represents a percentage increase in necrosis relative to the control of 0.1-50) | Average of necrosis [1, 6]: C (C represents a percentage increase in necrosis relative to the control of 0.1-50) | Average of necrosis [1, 7]: B (B represents a percentage inhibition of 50-80) | Average of necrosis [1, 8]: C (C represents a percentage increase in necrosis relative to the control of 0.1-50) | Average of necrosis [1, 9]: C (C represents a percentage increase in necrosis relative to the control of 0.1-50) | Average of necrosis [1, 10]: C (C represents a percentage increase in necrosis relative to the control of 0.1-50) | Average of necrosis [1, 11]: C (C represents a percentage increase in necrosis relative to the control of 0.1-50) | Average of necrosis [1, 12]: C (C represents a percentage increase in necrosis relative to the control of 0.1-50) | Average of necrosis [1, 13]: C (C represents a percentage increase in necrosis relative to the control of 0.1-50) | Average of necrosis [1, 14]: A (A represents a percentage inhibition of 80-100) | Average of necrosis [1, 15]: C (C represents a percentage increase in necrosis relative to the control of 0.1-50) | Average of necrosis [1, 16]: C (C represents a percentage increase in necrosis relative to the control of 0.1-50) | Average of necrosis [1, 17]: C (C represents a percentage increase in necrosis relative to the control of 0.1-50) | Average of necrosis [1, 18]: C (C represents a percentage increase in necrosis relative to the control of 0.1-50) | Average of necrosis [1, 19]: B (B represents a percentage inhibition of 50-80) | Average of necrosis [1, 20]: B (B represents a percentage inhibition of 50-80) | Average of necrosis [1, 21]: B (B represents a percentage inhibition of 50-80) | Average of necrosis [1, 22]: C (C represents a percentage increase in necrosis relative to the control of 0.1-50) | Average of necrosis [1, 23]: C (C represents a percentage increase in necrosis relative to the control of 0.1-50) | Average of necrosis [1, 24]: C (C represents a percentage increase in necrosis relative to the control of 0.1-50) | Average of necrosis [1, 25]: C (C represents a percentage increase in necrosis relative to the control of 0.1-50) | Average of necrosis [1, 26]: B (B represents a percentage inhibition of 50-80) | Average of necrosis [1, 27]: B (B represents a percentage inhibition of 50-80) | Average of necrosis [1, 28]: B (B represents a percentage inhibition of 50-80) | Average of necrosis [1, 29]: C (C represents a percentage increase in necrosis relative to the control of 0.1-50) | Average of necrosis [1, 30]: C (C represents a percentage increase in necrosis relative to the control of 0.1-50) | Average of necrosis [1, 31]: C (C represents a percentage increase in necrosis relative to the control of 0.1-50) | Average of necrosis [1, 32]: C (C represents a percentage increase in necrosis relative to the control of 0.1-50) | Average of necrosis [1, 33]: B (B represents a percentage inhibition of 50-80) | Average of necrosis [1, 34]: B (B represents a percentage inhibition of 50-80) | Average of necrosis [1, 35]: A (A represents a percentage inhibition of 80-100) | Average of necrosis ([2]; 12.5 g/ha, day 1 post application): C (C represents a percentage increase in necrosis relative to the control of 0.1-50) | Average of necrosis ([2]; 12.5 g/ha, day 2 post application): C (C represents a percentage increase in necrosis relative to the control of 0.1-50) | Average of necrosis [2, 3]: C (C represents a percentage increase in necrosis relative to the control of 0.1-50) | Average of necrosis [2, 4]: C (C represents a percentage increase in necrosis relative to the control of 0.1-50) | Average of necrosis [2, 5]: B (B represents a percentage inhibition of 50-80) | Average of necrosis [2, 6]: B (B represents a percentage inhibition of 50-80) | Average of necrosis [2, 7]: B (B represents a percentage inhibition of 50-80) | Average of necrosis [2, 8]: C (C represents a percentage increase in necrosis relative to the control of 0.1-50) | Average of necrosis [2, 9]: C (C represents a percentage increase in necrosis relative to the control of 0.1-50) | Average of necrosis [2, 10]: C (C represents a percentage increase in necrosis relative to the control of 0.1-50) | Average of necrosis [2, 11]: C (C represents a percentage increase in necrosis relative to the control of 0.1-50) | Average of necrosis [2, 12]: A (A represents a percentage inhibition of 80-100) | Average of necrosis [2, 13]: A (A represents a percentage inhibition of 80-100) | Average of necrosis [2, 14]: A (A represents a percentage inhibition of 80-100) | Average of necrosis [2, 15]: C (C represents a percentage increase in necrosis relative to the control of 0.1-50) | Average of necrosis [2, 16]: C (C represents a percentage increase in necrosis relative to the control of 0.1-50) | Average of necrosis [2, 17]: C (C represents a percentage increase in necrosis relative to the control of 0.1-50) | Average of necrosis [2, 18]: B (B represents a percentage inhibition of 50-80) | Average of necrosis [2, 19]: B (B represents a percentage inhibition of 50-80) | Average of necrosis [2, 20]: B (B represents a percentage inhibition of 50-80) | Average of necrosis [2, 21]: A (A represents a percentage inhibition of 80-100) | Average of necrosis [2, 22]: C (C represents a percentage increase in necrosis relative to the control of 0.1-50) | Average of necrosis [2, 23]: C (C represents a percentage increase in necrosis relative to the control of 0.1-50) | Average of necrosis [2, 24]: C (C represents a percentage increase in necrosis relative to the control of 0.1-50) | Average of necrosis [2, 25]: B (B represents a percentage inhibition of 50-80) | Average of necrosis [2, 26]: A (A represents a percentage inhibition of 80-100) | Average of necrosis [2, 27]: A (A represents a percentage inhibition of 80-100) | Average of necrosis [2, 28]: A (A represents a percentage inhibition of 80-100) | Average of necrosis [2, 29]: C (C represents a percentage increase in necrosis relative to the control of 0.1-50) | Average of necrosis [2, 30]: C (C represents a percentage increase in necrosis relative to the control of 0.1-50) | Average of necrosis [2, 31]: C (C represents a percentage increase in necrosis relative to the control of 0.1-50) | Average of necrosis [2, 32]: B (B represents a percentage inhibition of 50-80) | Average of necrosis [2, 33]: A (A represents a percentage inhibition of 80-100) | Average of necrosis [2, 34]: A (A represents a percentage inhibition of 80-100) | Average of necrosis [2, 35]: A (A represents a percentage inhibition of 80-100)
